Experimental data reported in ChEMBL document CHEMBL1201862, “PubChem BioAssay data set” (2004).
Calls of active or inactive are those of the source. Rule as the data show it, for most assays here: actives have a measured IC50 and inactives only a lower limit.

Key:
[1] = biological target: Matrix metalloproteinase-14 (Homo sapiens, UniProt P50281); assay: Dose Response confirmation of uHTS hits for a small molecule inhibitors of MT1-MMP activation in a fluorescence assay set 1.; assay type: functional
[2] = biological target: T1, Bcl-2-like protein 10 (Homo sapiens, UniProt Q9HD36); assay: displacers of TR3 peptide from Bcl-B, primary screen, selectivity assay for Bfl-1 inhibitor project, biochemical, fluorescence polarization, FITC-TR3 peptide (AID 748);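 also: fluorescence polarization from a fluorescein-labelled TR3 peptide binding purified Bcl-B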
T1 sequence (Q9HD36 whole entry): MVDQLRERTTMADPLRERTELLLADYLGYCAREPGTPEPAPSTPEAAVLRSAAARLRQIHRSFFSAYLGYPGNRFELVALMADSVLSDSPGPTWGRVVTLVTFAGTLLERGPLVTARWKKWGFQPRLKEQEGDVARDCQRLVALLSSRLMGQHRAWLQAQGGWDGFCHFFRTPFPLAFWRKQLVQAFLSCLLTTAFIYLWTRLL

[3] = biological target: T2, Sentrin-specific protease 7 (Homo sapiens, UniProt Q9BQF6); assay type: functional;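 also: Luminescence-based dose-response confirmation of ultra-high-throughput screening hits, measuring inhibition of SENP7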
T2 sequence (Q9BQF6 whole entry): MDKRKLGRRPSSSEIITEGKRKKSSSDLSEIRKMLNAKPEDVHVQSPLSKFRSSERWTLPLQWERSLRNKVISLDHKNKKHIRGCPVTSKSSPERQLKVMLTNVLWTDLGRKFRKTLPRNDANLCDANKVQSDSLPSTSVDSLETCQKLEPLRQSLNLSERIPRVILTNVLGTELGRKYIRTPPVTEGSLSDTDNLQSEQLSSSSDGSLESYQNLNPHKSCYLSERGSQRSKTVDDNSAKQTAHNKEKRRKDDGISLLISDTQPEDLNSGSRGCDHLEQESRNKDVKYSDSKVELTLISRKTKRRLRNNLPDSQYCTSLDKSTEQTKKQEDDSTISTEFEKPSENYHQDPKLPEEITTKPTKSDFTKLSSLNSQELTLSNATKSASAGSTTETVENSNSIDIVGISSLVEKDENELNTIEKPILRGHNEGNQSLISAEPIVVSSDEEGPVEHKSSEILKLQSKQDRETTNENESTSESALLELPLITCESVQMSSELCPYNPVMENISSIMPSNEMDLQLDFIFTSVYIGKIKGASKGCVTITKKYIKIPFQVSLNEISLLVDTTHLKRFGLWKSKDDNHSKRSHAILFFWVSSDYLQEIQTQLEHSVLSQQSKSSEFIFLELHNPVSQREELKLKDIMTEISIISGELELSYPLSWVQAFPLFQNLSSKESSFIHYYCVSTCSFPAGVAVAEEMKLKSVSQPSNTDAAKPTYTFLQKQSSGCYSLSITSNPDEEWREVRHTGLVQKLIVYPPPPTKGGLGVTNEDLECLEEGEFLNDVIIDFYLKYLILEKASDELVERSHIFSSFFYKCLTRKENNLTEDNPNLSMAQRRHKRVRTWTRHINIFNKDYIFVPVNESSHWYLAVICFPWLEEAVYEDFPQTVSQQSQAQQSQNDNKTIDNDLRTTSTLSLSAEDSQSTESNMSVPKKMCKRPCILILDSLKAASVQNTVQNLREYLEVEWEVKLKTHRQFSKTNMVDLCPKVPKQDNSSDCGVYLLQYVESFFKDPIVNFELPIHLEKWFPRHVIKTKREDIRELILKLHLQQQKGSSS

[4] = biological target: T3, Caspase-3 (Homo sapiens, UniProt P42574); assay type: functional;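 also: Dose-response selectivity test against caspase-3 for candidate inhibitors of sentrin-specific proteases (SENPs)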
T3 sequence (P42574 whole entry): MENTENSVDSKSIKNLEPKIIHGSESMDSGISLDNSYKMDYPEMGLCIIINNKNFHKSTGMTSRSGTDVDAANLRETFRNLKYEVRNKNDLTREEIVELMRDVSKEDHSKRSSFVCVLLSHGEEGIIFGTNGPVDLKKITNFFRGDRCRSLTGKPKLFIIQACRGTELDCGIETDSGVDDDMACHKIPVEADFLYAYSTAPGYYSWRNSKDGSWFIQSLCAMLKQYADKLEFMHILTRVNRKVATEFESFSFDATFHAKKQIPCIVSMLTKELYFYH

[5] = biological target: T4, Sentrin-specific protease 6 (Homo sapiens, UniProt Q9GZR1); assay type: functional;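 also: Luminescence-based dose-response confirmatory assay of SENP6 inhibition, following up an ultra-high-throughput screen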
T4 sequence (Q9GZR1 whole entry): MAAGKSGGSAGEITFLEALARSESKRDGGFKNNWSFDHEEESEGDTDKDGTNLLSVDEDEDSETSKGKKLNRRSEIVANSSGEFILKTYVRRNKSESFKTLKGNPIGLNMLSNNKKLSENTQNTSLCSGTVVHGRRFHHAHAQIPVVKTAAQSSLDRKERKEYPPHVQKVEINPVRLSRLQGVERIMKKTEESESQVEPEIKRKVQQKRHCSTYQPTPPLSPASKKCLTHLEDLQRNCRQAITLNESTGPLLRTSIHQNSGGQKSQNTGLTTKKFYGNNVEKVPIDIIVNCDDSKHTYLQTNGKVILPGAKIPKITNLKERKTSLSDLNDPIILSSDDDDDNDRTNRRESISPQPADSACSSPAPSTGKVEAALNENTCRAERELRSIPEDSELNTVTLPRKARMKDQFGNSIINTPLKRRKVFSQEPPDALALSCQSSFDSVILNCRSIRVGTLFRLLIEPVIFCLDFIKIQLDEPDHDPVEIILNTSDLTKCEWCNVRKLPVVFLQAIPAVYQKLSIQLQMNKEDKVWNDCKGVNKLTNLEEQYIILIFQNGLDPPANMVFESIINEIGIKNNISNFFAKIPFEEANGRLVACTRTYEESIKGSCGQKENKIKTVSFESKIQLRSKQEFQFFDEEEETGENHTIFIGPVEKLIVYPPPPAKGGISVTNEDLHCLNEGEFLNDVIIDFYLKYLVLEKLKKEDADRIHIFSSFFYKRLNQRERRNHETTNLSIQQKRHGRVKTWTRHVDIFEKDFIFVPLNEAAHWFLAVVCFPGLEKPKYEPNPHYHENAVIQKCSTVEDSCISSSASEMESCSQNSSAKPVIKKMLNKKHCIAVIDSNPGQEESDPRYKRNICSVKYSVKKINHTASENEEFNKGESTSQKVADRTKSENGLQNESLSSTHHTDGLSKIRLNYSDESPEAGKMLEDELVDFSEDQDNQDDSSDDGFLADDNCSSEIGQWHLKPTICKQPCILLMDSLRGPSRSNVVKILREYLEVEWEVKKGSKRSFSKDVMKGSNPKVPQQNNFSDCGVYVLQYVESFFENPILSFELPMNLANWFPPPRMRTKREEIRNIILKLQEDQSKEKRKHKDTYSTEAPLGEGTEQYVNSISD

Structure (SMILES)	IC50 [1]	IC50 [2]	IC50 [3]	IC50 [4]	IC50 [5]
CC1CC(C)CN(C(=O)c2ccc3c(c2NCCO)C(=O)c2ccccc2C3=O)C1 (stereo not given)	69 µM (inactive)	29.1 µM (active)	–	–	–
CCC(=O)N(C1=C(NC)C(=O)c2ccccc2C1=O)C(C)C	–	–	33.2 µM (active)	6.86 µM (active)	16.7 µM (active)
